Results reported in PMC7311426, “An amphipathic peptide with antibiotic activity against multidrug-resistant Gram-negative bacteria” (Nature Communications, 2020).
Values after ≈ are worked out from the molar mass of the structure shown.

Key:
Experiment in all cases: microbe, parasite or virus in culture
E. coli = tested on: E. coli
In short: (§1)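 MICs were scored by eye after 18-20 h static incubation at 37 °C, with bacteria at 5 × 10^5 CFU mL^−1 in MHB. Peptides were serially diluted 2-fold over 12 points, top 128 or 64 μg mL^−1. CAMHB (CLSI) and 1% agarose-MHB variants were also run, at least six replicates.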

K. pneumoniae = tested on: K. pneumoniae
In short: as §1

P. aeruginosa = tested on: P. aeruginosa
In short: as §1

C[C@H]1[C@H](NC(=O)/C(=N\OC(C)(C)C(=O)O)c2csc(N)n2)C(=O)N1S(=O)(=O)O [AZT]
MIC, broth microdilution (E. coli; E. coli AUD172 parent strain not exposed to drug): >32 µg/mL | MIC, broth microdilution (E. coli; E. coli AUD172 spontaneous mutant, AA139 selection 4X, plate 2, colony 2, drug-free passage 1): >32 , >32 µg/mL | MIC, broth microdilution (E. coli; E. coli AUD172 spontaneous mutant, AA139 selection 4X, plate 2, colony 2, drug-free passage 5): >32 , >32 µg/mL | MIC, broth microdilution (K. pneumoniae; K. pneumoniae 3010 parent strain not exposed to drug): 0.06 µg/mL (≈ 0.138 µM) | MIC, broth microdilution (K. pneumoniae; K. pneumoniae ST258 parent strain not exposed to drug): >32 µg/mL | MIC, broth microdilution (K. pneumoniae; K. pneumoniae ST258 spontaneous mutant, AA139 selection 4X, plate 1, colony 1, drug-free passage 1): >32 , >32 µg/mL | MIC, broth microdilution (K. pneumoniae; K. pneumoniae ST258 spontaneous mutant, AA139 selection 4X, plate 1, colony 1, drug-free passage 5): >32 , >32 µg/mL | MIC, broth microdilution (P. aeruginosa; P. aeruginosa ATCC 27853 parent strain not exposed to drug): 4 µg/mL (≈ 9.19 µM) | MIC, broth microdilution (P. aeruginosa; P. aeruginosa ATCC 27853 spontaneous mutant, AA139 selection 4X, plate 1, colony 1, drug-free passage 1): 4, 4 µg/mL | MIC, broth microdilution (P. aeruginosa; P. aeruginosa ATCC 27853 spontaneous mutant, AA139 selection 4X, plate 1, colony 1, drug-free passage 5): 4, 4 µg/mL | MIC, broth microdilution (P. aeruginosa; P. aeruginosa ATCC 27853 spontaneous mutant, AA139 selection 4X, plate 1, colony 2, drug-free passage 1): 8 µg/mL (≈ 18.4 µM) | MIC, broth microdilution (P. aeruginosa; P. aeruginosa ATCC 27853 spontaneous mutant, AA139 selection 4X, plate 1, colony 2, drug-free passage 5): 4 µg/mL (≈ 9.19 µM) | MIC, broth microdilution (P. aeruginosa; P. aeruginosa ATCC 27853 spontaneous mutant, AA139 selection 4X, plate 1, colony 3, drug-free passage 1): 4 µg/mL (≈ 9.19 µM) | MIC, broth microdilution (P. aeruginosa; P. aeruginosa ATCC 27853 spontaneous mutant, AA139 selection 4X, plate 1, colony 3, drug-free passage 5): 8 µg/mL (≈ 18.4 µM) | MIC, broth microdilution (P. aeruginosa; P. aeruginosa ATCC 27853 spontaneous mutant, AA139 selection 4X, plate 1, colony 4, drug-free passage 1): 8 µg/mL (≈ 18.4 µM) | MIC, broth microdilution (P. aeruginosa; P. aeruginosa ATCC 27853 spontaneous mutant, AA139 selection 4X, plate 1, colony 4, drug-free passage 5): 4 µg/mL (≈ 9.19 µM) | MIC, broth microdilution (P. aeruginosa; P. aeruginosa ATCC 27853 spontaneous mutant, AA139 selection 4X, plate 1, colony 5, drug-free passage 1): 8 µg/mL (≈ 18.4 µM) | MIC, broth microdilution (P. aeruginosa; P. aeruginosa ATCC 27853 spontaneous mutant, AA139 selection 4X, plate 1, colony 5, drug-free passage 5): 4 µg/mL (≈ 9.19 µM) | MIC, broth microdilution (P. aeruginosa; P. aeruginosa ATCC 27853 spontaneous mutant, AA139 selection 4X, plate 1, colony 6, drug-free passage 1): 8 µg/mL (≈ 18.4 µM) | MIC, broth microdilution (P. aeruginosa; P. aeruginosa ATCC 27853 spontaneous mutant, AA139 selection 4X, plate 1, colony 6, drug-free passage 5): 4 µg/mL (≈ 9.19 µM) | MIC, broth microdilution (P. aeruginosa; P. aeruginosa ATCC 27853 spontaneous mutant, AA139 selection 4X, plate 2, colony 1, drug-free passage 1): 4, 4 µg/mL | MIC, broth microdilution (P. aeruginosa; P. aeruginosa ATCC 27853 spontaneous mutant, AA139 selection 4X, plate 2, colony 1, drug-free passage 5): 4, 4 µg/mL | MIC, broth microdilution (P. aeruginosa; P. aeruginosa ATCC 27853 spontaneous mutant, AA139 selection 4X, plate 2, colony 2, drug-free passage 1): 4, 4 µg/mL | MIC, broth microdilution (P. aeruginosa; P. aeruginosa ATCC 27853 spontaneous mutant, AA139 selection 4X, plate 2, colony 2, drug-free passage 5): 4, 4 µg/mL | MIC, broth microdilution (P. aeruginosa; P. aeruginosa ATCC 27853 spontaneous mutant, AA139 selection 4X, plate 2, colony 3, drug-free passage 1): 4, 4 µg/mL | MIC, broth microdilution (P. aeruginosa; P. aeruginosa ATCC 27853 spontaneous mutant, AA139 selection 4X, plate 2, colony 3, drug-free passage 5): 4, 4 µg/mL | MIC, broth microdilution (P. aeruginosa; P. aeruginosa ATCC 27853 spontaneous mutant, AA139 selection 4X, plate 2, colony 4, drug-free passage 1): 4, 4 µg/mL | MIC, broth microdilution (P. aeruginosa; P. aeruginosa ATCC 27853 spontaneous mutant, AA139 selection 4X, plate 2, colony 4, drug-free passage 5): 4, 4 µg/mL | MIC, broth microdilution (P. aeruginosa; P. aeruginosa ATCC 27853 spontaneous mutant, AA139 selection 8X, plate 1, colony 1, drug-free passage 1): 8 µg/mL (≈ 18.4 µM) | MIC, broth microdilution (P. aeruginosa; P. aeruginosa ATCC 27853 spontaneous mutant, AA139 selection 8X, plate 1, colony 1, drug-free passage 5): 4 µg/mL (≈ 9.19 µM) | MIC, broth microdilution (P. aeruginosa; P. aeruginosa ATCC 27853 spontaneous mutant, AA139 selection 8X, plate 1, colony 2, drug-free passage 1): 8, 8 µg/mL | MIC, broth microdilution (P. aeruginosa; P. aeruginosa ATCC 27853 spontaneous mutant, AA139 selection 8X, plate 1, colony 2, drug-free passage 5): 8, 8 µg/mL | MIC, broth microdilution (P. aeruginosa; P. aeruginosa ATCC 27853 spontaneous mutant, AA139 selection 8X, plate 1, colony 3, drug-free passage 1): 8, 8 µg/mL | MIC, broth microdilution (P. aeruginosa; P. aeruginosa ATCC 27853 spontaneous mutant, AA139 selection 8X, plate 1, colony 3, drug-free passage 5): 8, 8 µg/mL | MIC, broth microdilution (P. aeruginosa; P. aeruginosa ATCC 27853 spontaneous mutant, AA139 selection 8X, plate 1, colony 4, drug-free passage 1): 8, 8 µg/mL | MIC, broth microdilution (P. aeruginosa; P. aeruginosa ATCC 27853 spontaneous mutant, AA139 selection 8X, plate 1, colony 4, drug-free passage 5): 8, 8 µg/mL | MIC, broth microdilution (P. aeruginosa; P. aeruginosa ATCC 27853 spontaneous mutant, AA139 selection 8X, plate 1, colony 5, drug-free passage 1): 8, 8 µg/mL | MIC, broth microdilution (P. aeruginosa; P. aeruginosa ATCC 27853 spontaneous mutant, AA139 selection 8X, plate 1, colony 5, drug-free passage 5): 8, 8 µg/mL | MIC, broth microdilution (P. aeruginosa; P. aeruginosa UNT 138-1 parent strain not exposed to drug): 4 µg/mL (≈ 9.19 µM) | MIC, broth microdilution (P. aeruginosa; P. aeruginosa UNT 138-1 spontaneous mutant, AA139 selection 4X, plate 1, colony 1, drug-free passage 1): 4 µg/mL (≈ 9.19 µM) | MIC, broth microdilution (P. aeruginosa; P. aeruginosa UNT 138-1 spontaneous mutant, AA139 selection 4X, plate 1, colony 1, drug-free passage 5): 8 µg/mL (≈ 18.4 µM) | MIC, broth microdilution (P. aeruginosa; P. aeruginosa UNT 138-1 spontaneous mutant, AA139 selection 4X, plate 1, colony 2, drug-free passage 1): 4, 4 µg/mL | MIC, broth microdilution (P. aeruginosa; P. aeruginosa UNT 138-1 spontaneous mutant, AA139 selection 4X, plate 1, colony 2, drug-free passage 5): 4, 4 µg/mL | MIC, broth microdilution (P. aeruginosa; P. aeruginosa UNT 138-1 spontaneous mutant, AA139 selection 4X, plate 1, colony 3, drug-free passage 1): 4 µg/mL (≈ 9.19 µM) | MIC, broth microdilution (P. aeruginosa; P. aeruginosa UNT 138-1 spontaneous mutant, AA139 selection 4X, plate 1, colony 3, drug-free passage 5): 8 µg/mL (≈ 18.4 µM) | MIC, broth microdilution (P. aeruginosa; P. aeruginosa UNT 138-1 spontaneous mutant, AA139 selection 4X, plate 1, colony 4, drug-free passage 1): 8, 8 µg/mL | MIC, broth microdilution (P. aeruginosa; P. aeruginosa UNT 138-1 spontaneous mutant, AA139 selection 4X, plate 1, colony 4, drug-free passage 5): 8, 8 µg/mL | MIC, broth microdilution (P. aeruginosa; P. aeruginosa UNT 138-1 spontaneous mutant, AA139 selection 4X, plate 1, colony 5, drug-free passage 1): 4, 4 µg/mL | MIC, broth microdilution (P. aeruginosa; P. aeruginosa UNT 138-1 spontaneous mutant, AA139 selection 4X, plate 1, colony 5, drug-free passage 5): 4, 4 µg/mL | MIC, broth microdilution (P. aeruginosa; P. aeruginosa UNT 138-1 spontaneous mutant, AA139 selection 4X, plate 1, colony 6, drug-free passage 1): 4, 4 µg/mL | MIC, broth microdilution (P. aeruginosa; P. aeruginosa UNT 138-1 spontaneous mutant, AA139 selection 4X, plate 1, colony 6, drug-free passage 5): 4, 4 µg/mL | MIC, broth microdilution (P. aeruginosa; P. aeruginosa UNT 138-1 spontaneous mutant, AA139 selection 4X, plate 1, colony 7, drug-free passage 1): 4, 4 µg/mL | MIC, broth microdilution (P. aeruginosa; P. aeruginosa UNT 138-1 spontaneous mutant, AA139 selection 4X, plate 1, colony 7, drug-free passage 5): 4, 4 µg/mL | MIC, broth microdilution (P. aeruginosa; P. aeruginosa UNT 138-1 spontaneous mutant, AA139 selection 4X, plate 2, colony 1, drug-free passage 1): 8, 8 µg/mL | MIC, broth microdilution (P. aeruginosa; P. aeruginosa UNT 138-1 spontaneous mutant, AA139 selection 4X, plate 2, colony 1, drug-free passage 5): 8, 8 µg/mL | MIC, broth microdilution (P. aeruginosa; P. aeruginosa UNT 138-1 spontaneous mutant, AA139 selection 4X, plate 2, colony 2, drug-free passage 1): 4, 4 µg/mL | MIC, broth microdilution (P. aeruginosa; P. aeruginosa UNT 138-1 spontaneous mutant, AA139 selection 4X, plate 2, colony 2, drug-free passage 5): 4, 4 µg/mL | MIC, broth microdilution (P. aeruginosa; P. aeruginosa UNT 138-1 spontaneous mutant, AA139 selection 4X, plate 2, colony 3, drug-free passage 1): 4, 4 µg/mL | MIC, broth microdilution (P. aeruginosa; P. aeruginosa UNT 138-1 spontaneous mutant, AA139 selection 4X, plate 2, colony 3, drug-free passage 5): 4, 4 µg/mL | MIC, broth microdilution (P. aeruginosa; P. aeruginosa UNT 138-1 spontaneous mutant, AA139 selection 4X, plate 2, colony 4, drug-free passage 1): 4, 4 µg/mL | MIC, broth microdilution (P. aeruginosa; P. aeruginosa UNT 138-1 spontaneous mutant, AA139 selection 4X, plate 2, colony 4, drug-free passage 5): 4, 4 µg/mL | MIC, broth microdilution (P. aeruginosa; P. aeruginosa UNT 138-1 spontaneous mutant, AA139 selection 4X, plate 2, colony 5, drug-free passage 1): 4, 4 µg/mL | MIC, broth microdilution (P. aeruginosa; P. aeruginosa UNT 138-1 spontaneous mutant, AA139 selection 4X, plate 2, colony 5, drug-free passage 5): 4, 4 µg/mL | MIC, broth microdilution (P. aeruginosa; P. aeruginosa UNT 138-1 spontaneous mutant, AA139 selection 4X, plate 2, colony 6, drug-free passage 1): 4, 4 µg/mL | MIC, broth microdilution (P. aeruginosa; P. aeruginosa UNT 138-1 spontaneous mutant, AA139 selection 4X, plate 2, colony 6, drug-free passage 5): 4, 4 µg/mL | MIC, broth microdilution (P. aeruginosa; P. aeruginosa UNT 138-1 spontaneous mutant, AA139 selection 4X, plate 2, colony 7, drug-free passage 1): 4, 4 µg/mL | MIC, broth microdilution (P. aeruginosa; P. aeruginosa UNT 138-1 spontaneous mutant, AA139 selection 4X, plate 2, colony 7, drug-free passage 5): 4, 4 µg/mL | MIC, broth microdilution (P. aeruginosa; P. aeruginosa UNT 138-1 spontaneous mutant, AA139 selection 8X, plate 1, colony 1, drug-free passage 1): 4, 4 µg/mL | MIC, broth microdilution (P. aeruginosa; P. aeruginosa UNT 138-1 spontaneous mutant, AA139 selection 8X, plate 1, colony 1, drug-free passage 5): 4, 4 µg/mL | MIC, broth microdilution (P. aeruginosa; P. aeruginosa UNT 138-1 spontaneous mutant, AA139 selection 8X, plate 1, colony 2, drug-free passage 1): 4, 4 µg/mL | MIC, broth microdilution (P. aeruginosa; P. aeruginosa UNT 138-1 spontaneous mutant, AA139 selection 8X, plate 1, colony 2, drug-free passage 5): 4, 4 µg/mL | MIC, broth microdilution (P. aeruginosa; P. aeruginosa UNT 138-1 spontaneous mutant, AA139 selection 8X, plate 1, colony 3, drug-free passage 1): 4, 4 µg/mL | MIC, broth microdilution (P. aeruginosa; P. aeruginosa UNT 138-1 spontaneous mutant, AA139 selection 8X, plate 1, colony 3, drug-free passage 5): 4, 4 µg/mL | MIC, broth microdilution (P. aeruginosa; P. aeruginosa UNT 138-1 spontaneous mutant, AA139 selection 8X, plate 1, colony 4, drug-free passage 1): 4, 4 µg/mL | MIC, broth microdilution (P. aeruginosa; P. aeruginosa UNT 138-1 spontaneous mutant, AA139 selection 8X, plate 1, colony 4, drug-free passage 5): 4, 4 µg/mL | MIC, broth microdilution (P. aeruginosa; P. aeruginosa UNT 138-1 spontaneous mutant, AA139 selection 8X, plate 1, colony 5, drug-free passage 1): 4 µg/mL (≈ 9.19 µM) | MIC, broth microdilution (P. aeruginosa; P. aeruginosa UNT 138-1 spontaneous mutant, AA139 selection 8X, plate 1, colony 5, drug-free passage 5): 8 µg/mL (≈ 18.4 µM) | MIC, broth microdilution (P. aeruginosa; P. aeruginosa UNT 138-1 spontaneous mutant, AA139 selection 8X, plate 2, colony 1, drug-free passage 1): 4 µg/mL (≈ 9.19 µM) | MIC, broth microdilution (P. aeruginosa; P. aeruginosa UNT 138-1 spontaneous mutant, AA139 selection 8X, plate 2, colony 1, drug-free passage 5): 8 µg/mL (≈ 18.4 µM)
